Measured values taken from patent publication US10100006B2, “Compound having immune disease treatment effect and use thereof” (THE CATHOLIC UNIVERSITY OF KOREA INDUSTRY—ACADEMIC …, priority 2014, dated 2018).

How the values were obtained:
[1] = system: IL-17; experiment: Inhibition of IL-17 production in anti-CD3 stimulated spleen cells of mouse, ELISA (Experimental Example 6); type: cell-based; conditions: spleen cells of DBA1/J normal mouse, anti mouse CD3 0.5 μg/ml, compound 200 and 500 μM; FIG. 24
Method: (§1) Furthermore, the inventors verified that inhibition degree of IL-17 and TNF-α as the inflammatory cytokines through an ELISA after treating anti mouse CD3 at a concentration of 0.5 μg/ml in the cells obtained from the spleen of a DBA1/J normal mouse group and commonly stimulating each compound at a concentration of 200 and 500 μM, in order to evaluating efficacy in an effect of inhibiting the inflammatory cytokines by targeting the compounds synthesized in Examples of the present invention.

[2] = system: TNF-α; experiment: Inhibition of TNF-α production in anti-CD3 stimulated spleen cells of mouse, ELISA (Experimental Example 6); type: cell-based; conditions: spleen cells of DBA1/J normal mouse, anti mouse CD3 0.5 μg/ml, compound 200 and 500 μM; FIG. 24
Method: as §1

[3] = system: IL-6; experiment: Production of inflammatory cytokines, ELISA: IL-6, mouse spleen cells; type: cell-based
[4] = system: IgG2; experiment: Autoantibody production, sandwich ELISA: IgG2; type: cell-based, mouse
[5] = system: Total IgG; experiment: Autoantibody production, sandwich ELISA: Total IgG; type: cell-based, mouse
[6] = system: Treg cells; experiment: Treg cell-induced activity, flow cytometry; type: cell-based, mouse; conditions: TCR condition
[7] = system: cells in each test group disclosed in Table 3; experiment: Cytotoxicity analysis (MTT assay); type: cell-based, mouse; human; conditions: treatment for each concentration, 72 hrs; normal cells and disease-group cells; compared with control or metformin-treated group
Method: In order to verify whether the compounds synthesized in the present invention causes the cytotoxicity in the cells, an MTT assay was performed, target cells were divided to be the number of 2×10^5 cells per well on a 96 well plate, treated with the compounds of the present invention for each concentration, incubated for 72 hrs, added with an MTT solution (0.5% 3-4,5-dimethyl thiazol-2-yl)-2,5-diphenyl-2H-tetrazolium bromide), and incubated for 4 hrs again. Thereafter, absorbance at 540 nm was measured by an enzymelinked immunospecific assay (ELISA) meter to observe the cytotoxicity.
In order to verify whether the novel compounds synthesized in Example 1 have the cytotoxicity, a cell survival rate was verified through the MTT assay by targeting cells in each test group disclosed in Table 3 above. That is, the cells of each test group were divided according to the number of 2×10^5 cells per well and treated with the novel synthesized compounds of the present invention for each concentration, and the cell survival rate was analyzed.

[8] = system: Th17 cells; experiment: Inhibition of Th17 cells, flow cytometry; type: cell-based, mouse
[9] = system: IL-17; experiment: Production of inflammatory cytokines, ELISA: IL-17, lymphocytes of human peripheral blood; type: cell-based; conditions: D: Lymphocytes of human peripheral blood
Method: (§2) Further, in a lupus-developed mouse model, a sanroque mouse used in a lupus model in the art was used and the human P.B group was used by obtaining lymphocytes from the human peripheral blood. The isolation of spleen cells and the isolation of lymphocytes from each mouse and the human peripheral blood were performed by a general method which was widely known in the art and the obtained cells were incubated for 72 h under the anti-CD3 0.5 μg/ml stimulation condition, activated, and then used.
(§3) In order to verify whether the novel compounds of the present invention have an effect on inflammation and the production of inflammatory cytokines as cause substances of the immune diseases, the inventors analyzed the production degree of IL-17, IL-6, TNF-α, IFN-γ, MMP-9, and STAT-3 and the expression degree of mRNA of these cytokines by targeting each test group. The production degree of the inflammatory cytokines was analyzed through an ELISA after obtaining a supernatant by targeting cells which were treated with the compound of the present invention and incubated, and particularly, the cells reacted with cytokine-specific antibodies anti-IL-17, anti-IL-6, anti-TNF-α, anti-IFN-γ, anti-MMP-9, and anti-STAT-3 all night at […] and then non-specific binding was blocked with a blocking solution (1% BSA/PBST). Thereafter, each biotinylated antibody was reacted at room temperature for 2 hrs, washed four times, and then reacted at room temperature for 2 hrs after diluting and adding an extravidin-alkaline phosphatase conjugate. Thereafter, a PNPP/DEA solution was added and colored, and then the absorbance was measured at a wavelength of 405 nm.

[10] = system: TNF-a; experiment: Production of inflammatory cytokines, ELISA: TNF-a, mouse spleen cells; type: cell-based
[11] = system: IgG1; experiment: Autoantibody production, sandwich ELISA: IgG1; type: cell-based, mouse
[12] = system: TNF-a; experiment: Inflammatory gene expression, RT-PCR: TNF-a; type: cell-based, mouse; conditions: control = 1
[13] = system: IFN-r; experiment: Production of inflammatory cytokines, ELISA: IFN-r, mouse spleen cells; type: cell-based
[14] = system: IL-17; experiment: Production of inflammatory cytokines, ELISA: IL-17, mouse spleen cells; type: cell-based
[15] = system: IFN-r; experiment: Production of inflammatory cytokines, ELISA: IFN-r, lymphocytes of human peripheral blood; type: cell-based; conditions: D: Lymphocytes of human peripheral blood
Method: as §2, §3

[16] = system: osteoclasts; experiment: Inhibition of differentiation of osteoclasts, TRAP staining; type: cell-based, mouse; conditions: M-CSF and RANKL
[17] = system: MMP-9; experiment: Inflammatory gene expression, RT-PCR: MMP-9; type: cell-based, mouse; conditions: control = 1
[18] = system: STAT3; experiment: Inflammatory gene expression, RT-PCR: STAT3; type: cell-based; conditions: A: Normal mouse cells; control = 1
[19] = TCR condition, A: Normal mouse cells
[20] = TCR condition, B: Rheumatoid arthritis cells
[21] = Th17 condition (Th17 differentiation condition), A: Normal mouse cells

CCN(C(=N)NC(=N)N)c1ccccc1 [SD-573, N-Ethyl-N-phenyl biguanide]
inhibition of IL-17 production [1]: simultaneously inhibiting the IL-17 and the TNF-α | inhibition of TNF-α production [2]: simultaneously inhibiting the IL-17 and the TNF-α

CCN(C(=N)NC(=N)N)c1ccc(F)c(F)c1 [SD-281, N-(3,4-Difluorophenyl)-N-ethylbiguanide]
IL-6 production ([3]; A: Normal mouse cells): 1.4 ng/mL | IL-6 production ([3]; B: Rheumatoid arthritis cells): 1.4 ng/mL | IL-6 production ([3]; C: Lupus cells): 1 ng/mL | IgG2 ([4]; A: Normal mouse cells): 35.6 ng/mL | IgG2 ([4]; B: Rheumatoid arthritis cells): 33.5 ng/mL | IgG2 ([4]; C: Lupus cells): 84.3 ng/mL | Total IgG ([5]; A: Normal mouse cells): 2.3 ng/mL | Total IgG ([5]; B: Rheumatoid arthritis cells): 58.1 ng/mL | Total IgG ([5]; C: Lupus cells): 124.5 ng/mL | Treg ([6]; A: Normal mouse cells): 2 | Treg ([6]; B: Rheumatoid arthritis cells): 4.6 | Treg ([6]; C: Lupus cells): 2.8 | cytotoxicity (cell survival rate, MTT) [7]: cytotoxicity was not observed | Th17 [8, 19]: 1.2 | Th17 [8, 20]: 1.5 | Th17 ([8]; TCR condition, C: Lupus cells): 0.8 | Th17 [8, 21]: 0.4 | IL-17 production [9]: 0.1 ng/mL | TNF-a production ([10]; A: Normal mouse cells): 0.5 ng/mL | TNF-a production ([10]; B: Rheumatoid arthritis cells): 0.4 ng/mL | TNF-a production ([10]; C: Lupus cells): 0.7 ng/mL | IgG1 ([11]; A: Normal mouse cells): 83.8 ng/mL | IgG1 ([11]; B: Rheumatoid arthritis cells): 135.2 ng/mL | IgG1 ([11]; C: Lupus cells): 258.2 ng/mL | TNF-a gene expression ([12]; A: Normal mouse cells): 0.2 gene expression | TNF-a gene expression ([12]; B: Rheumatoid arthritis cells): 0.6 gene expression | TNF-a gene expression ([12]; C: Lupus cells): 0.1 gene expression | IFN-r production ([13]; A: Normal mouse cells): 5.8 ng/mL | IFN-r production ([13]; B: Rheumatoid arthritis cells): 5.3 ng/mL | IFN-r production ([13]; C: Lupus cells): 10 ng/mL | IL-17 production ([14]; A: Normal mouse cells): 1.7 ng/mL | IL-17 production ([14]; B: Rheumatoid arthritis cells): 2.2 ng/mL | IL-17 production ([14]; C: Lupus cells): 0.6 ng/mL | IFN-r production [15]: 0.1 ng/mL | TRAP + Cell ([16]; A: Normal mouse cells): 196 | TRAP + Cell ([16]; B: Rheumatoid arthritis cells): 57 | MMP-9 gene expression ([17]; A: Normal mouse cells): 0.5 gene expression | MMP-9 gene expression ([17]; B: Rheumatoid arthritis cells): 0.4 gene expression | MMP-9 gene expression ([17]; C: Lupus cells): 0.4 gene expression | STAT3 gene expression [18]: 1.2 gene expression

CCN(C(=N)NC(=N)N)c1ccc(Cl)cc1 [SD-566, N-(4-Chlorophenyl)-N-ethyl-biguanide]
inhibition of IL-17 production [1]: simultaneously inhibiting the IL-17 and the TNF-α | inhibition of TNF-α production [2]: simultaneously inhibiting the IL-17 and the TNF-α

CCCN(C(=N)NC(=N)N)c1ccc(F)cc1F [SD-580, N-(2,4-Difluorophenyl)-N-propylbiguanide]
inhibition of IL-17 production [1]: simultaneously inhibiting the IL-17 and the TNF-α | inhibition of TNF-α production [2]: simultaneously inhibiting the IL-17 and the TNF-α

CN(C(=N)NC(=N)N)c1ccc(F)cc1F [SD-284, N-(2,4-Difluorophenyl)-N-methylbiguanide]
IL-6 production ([3]; Table 6, normal mouse cells): 0.7 ng/mL | cytotoxicity (cell survival rate, MTT) [7]: cytotoxicity was not observed | Th17 [8, 21]: 2 | IL-17 production [9]: 0.1 ng/mL | TNF-a production ([10]; Table 6, normal mouse cells): 0.5 ng/mL | IFN-r production ([13]; Table 6, normal mouse cells): 4.9 ng/mL | IL-17 production ([14]; Table 6, normal mouse cells): 6.5 ng/mL | IFN-r production [15]: 0.08 ng/mL

CCN(C(=N)NC(=N)N)c1ccc(F)cc1F [SD-283, N-(2,4-Difluorophenyl)-N-ethylbiguanide]
IL-6 production ([3]; A: Normal mouse cells): 1.4 ng/mL | IL-6 production ([3]; B: Rheumatoid arthritis cells): 1.1 ng/mL | IL-6 production ([3]; C: Lupus cells): 0.9 ng/mL | IgG2 ([4]; A: Normal mouse cells): 97.6 ng/mL | IgG2 ([4]; B: Rheumatoid arthritis cells): 99.4 ng/mL | IgG2 ([4]; C: Lupus cells): 76 ng/mL | Total IgG ([5]; A: Normal mouse cells): 2.9 ng/mL | Total IgG ([5]; B: Rheumatoid arthritis cells): 49.6 ng/mL | Total IgG ([5]; C: Lupus cells): 113.5 ng/mL | Treg ([6]; A: Normal mouse cells): 3 | Treg ([6]; B: Rheumatoid arthritis cells): 5.1 | Treg ([6]; C: Lupus cells): 3.3 | cytotoxicity (cell survival rate, MTT) [7]: cytotoxicity was not observed | Th17 [8, 19]: 1.1 | Th17 [8, 20]: 2.3 | Th17 ([8]; TCR condition, C: Lupus cells): 0.5 | Th17 [8, 21]: 0.9 | IL-17 production [9]: 0.1 ng/mL | TNF-a production ([10]; A: Normal mouse cells): 0.5 ng/mL | TNF-a production ([10]; B: Rheumatoid arthritis cells): 0.3 ng/mL | TNF-a production ([10]; C: Lupus cells): 0.6 ng/mL | IgG1 ([11]; A: Normal mouse cells): 41 ng/mL | IgG1 ([11]; B: Rheumatoid arthritis cells): 135.3 ng/mL | IgG1 ([11]; C: Lupus cells): 296.5 ng/mL | TNF-a gene expression ([12]; A: Normal mouse cells): 0.4 gene expression | TNF-a gene expression ([12]; B: Rheumatoid arthritis cells): 0.06 gene expression | TNF-a gene expression ([12]; C: Lupus cells): 0.1 gene expression | IFN-r production ([13]; A: Normal mouse cells): 7.2 ng/mL | IFN-r production ([13]; B: Rheumatoid arthritis cells): 5.4 ng/mL | IFN-r production ([13]; C: Lupus cells): 5.5 ng/mL | IL-17 production ([14]; A: Normal mouse cells): 1.6 ng/mL | IL-17 production ([14]; B: Rheumatoid arthritis cells): 2.2 ng/mL | IL-17 production ([14]; C: Lupus cells): 0.4 ng/mL | IFN-r production [15]: 0.1 ng/mL | TRAP + Cell ([16]; A: Normal mouse cells): 123 | TRAP + Cell ([16]; B: Rheumatoid arthritis cells): 85 | MMP-9 gene expression ([17]; A: Normal mouse cells): 0.3 gene expression | MMP-9 gene expression ([17]; B: Rheumatoid arthritis cells): 1 gene expression | MMP-9 gene expression ([17]; C: Lupus cells): 0.04 gene expression | STAT3 gene expression [18]: 1.3 gene expression

CCN(C(=N)NC(=N)N)c1ccc(Br)cc1 [SD-567, N-(4-Bromophenyl)-N-ethyl-biguanide]
inhibition of IL-17 production [1]: simultaneously inhibiting the IL-17 and the TNF-α | inhibition of TNF-α production [2]: simultaneously inhibiting the IL-17 and the TNF-α

N=C(N)NC(=N)Nc1cccc(Cl)c1 [SD-564, N-(3-Chlorophenyl) biguanide]
inhibition of IL-17 production [1]: simultaneously inhibiting the IL-17 and the TNF-α | inhibition of TNF-α production [2]: simultaneously inhibiting the IL-17 and the TNF-α

N=C(N)NC(=N)Nc1ccc(Br)cc1 [SD-563, N-(4-Bromophenyl) biguanide]
inhibition of IL-17 production [1]: simultaneously inhibiting the IL-17 and the TNF-α | inhibition of TNF-α production [2]: simultaneously inhibiting the IL-17 and the TNF-α

CCN(C(=N)NC(=N)N)c1ccccc1F [SD-574, N-Ethyl-N-(2-fluorophenyl) biguanide]
inhibition of IL-17 production [1]: simultaneously inhibiting the IL-17 and the TNF-α | inhibition of TNF-α production [2]: simultaneously inhibiting the IL-17 and the TNF-α
